65 compounds from PubChem BioAssay AID1195 (EPA DSSTox, 2008) can be followed below.

The series relates to human maximum recommended daily dose, FDA database. As to the kind of experiment: DSSTox (FDAMDD) FDA Maximum (Recommended) Daily Dose Database. As to conditions: hits give low values. The method, boiled down:
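MRDD values come from clinical trials with daily oral dosing, usually for 3–12 months, for the average adult, in mg/day converted to mg/kg-bw/day assuming 60 kg. Antineoplastic mg/m2 doses are divided by 37. Activity score maps log10(1/MRDD mmol) onto 1–100.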

Setting [1] is: TherapeuticCategory: antiarrhythmic.
[2] abbreviates: TherapeuticCategory: antiasthmatic.
The mark [3] stands for this setting: TherapeuticCategory: antineoplastic.
The mark [4] stands for this setting: TherapeuticCategory: antipsychotic.
Setting [5] is: TherapeuticCategory: antibacterial.
The mark [6] stands for this setting: TherapeuticCategory: antihypertensive.
The mark [7] stands for this setting: TherapeuticCategory: diagnostic aid.
Setting [8] is: TherapeuticCategory: cardiotonic.
[9] abbreviates: TherapeuticCategory: sedative, hypnotic.
Setting [10] is: TherapeuticCategory: anti inflammatory.

In the case of `Nc1ncnc2c1ncn2[C@@H]1O[C@H](COP(=O)(O)O)[C@@H](O)[C@H]1O`, the maximum recommended daily dose (mmol/kg-bw/day) under setting [1] is 0.000959.
As to `C=CCN1C[C@H](C(=O)N(CCCN(C)C)C(=O)NCC)C[C@@H]2c3cccc4[nH]cc(c34)C[C@H]21`, the maximum recommended daily dose (mmol/kg-bw/day) (TherapeuticCategory: antidyskinetic, prolactin inhibitor, antiparkinsonian, dopamine receptor antagonist) is 4.43e-05.
As to `CC(C)(O)c1ccccc1CC[C@@H](SCC1(CC(=O)O)CC1)c1cccc(/C=C/c2ccc3ccc(Cl)cc3n2)c1`, the maximum recommended daily dose (mmol/kg-bw/day) under setting [2] is 0.000285.
Regarding `NS(=O)(=O)c1cc(C(=O)O)cc(N2CCCC2)c1Oc1ccccc1`, the maximum recommended daily dose (mmol/kg-bw/day) (TherapeuticCategory: diuretic) was 0.000552.
Take `C[C@H](CN1CCOCC1)C(C(=O)N1CCCC1)(c1ccccc1)c1ccccc1`: the maximum recommended daily dose (mmol/kg-bw/day) (TherapeuticCategory: narcotic analgesic) was 0.000848.
`CC(C)(C)NCC(O)c1cc(Cl)c(N)c(Cl)c1` (stereo not given): the maximum recommended daily dose (mmol/kg-bw/day) under setting [2] was 3.61e-06.
Take `CC(C)(Oc1ccc(Cl)cc1)C(=O)NC(=O)NCN1CCOCC1`: the maximum recommended daily dose (mmol/kg-bw/day) (TherapeuticCategory: antithrombotic) is 0.112.
As to `COc1ccc2c(c1OC)CN1CCc3cc4c(cc3C1C2)OCO4` (stereo not given), the maximum recommended daily dose (mmol/kg-bw/day) (TherapeuticCategory: Ca channel blocker) was 0.0981.
`N#Cc1ccc(C(c2ccc(C#N)cc2)n2cncn2)cc1`: under setting [3], the maximum recommended daily dose (mmol/kg-bw/day) was 0.000146.
`O=C(CCCN1CCC(O)(c2ccc(Br)cc2)CC1)c1ccc(F)cc1`: the maximum recommended daily dose (mmol/kg-bw/day) under setting [4] is 0.00198.
`COc1ccc(Cc2nccc3cc(OC)c(OC)cc23)cc1OC`: the maximum recommended daily dose (mmol/kg-bw/day) (TherapeuticCategory: smooth muscle relaxant, cerebral vasodilator) was 0.0295.
Consider `CN(C)c1ccc2nc3ccc(=[N+](C)C)cc-3sc2c1`, for which the maximum recommended daily dose (mmol/kg-bw/day) (TherapeuticCategory: antimethemoglobinemic) is 0.0203.
On to `CN[C@@H](C)[C@H](O)c1ccccc1`, for which the maximum recommended daily dose (mmol/kg-bw/day) (TherapeuticCategory: bronchodilator) is 0.0101.
Turning to `Cc1nnc(SCC2=C(C(=O)O)N3C(=O)[C@@H](NC(=O)Cn4cnnn4)[C@H]3SC2)s1`, the maximum recommended daily dose (mmol/kg-bw/day) under setting [5] is 0.147.
Consider `O=c1[nH]cc(F)c(=O)[nH]1`, for which the maximum recommended daily dose (mmol/kg-bw/day) under setting [3] was 0.0923.
`C=C1c2cccc(O)c2C(O)=C2C(=O)[C@]3(O)C(O)=C(C(N)=O)C(=O)[C@@H](N(C)C)[C@@H]3[C@@H](O)[C@H]12`: the maximum recommended daily dose (mmol/kg-bw/day) under setting [5] is 0.0339.
Take `CCCc1nn(C)c2c(=O)[nH]c(-c3cc(S(=O)(=O)N4CCN(C)CC4)ccc3OCC)nc12`: under “TherapeuticCategory: erectile disfunction treatment”, the maximum recommended daily dose (mmol/kg-bw/day) is 0.00352.
Take `O=C1OC(c2ccc(O)cc2)(c2ccc(O)cc2)c2ccccc21`: for the setting “TherapeuticCategory: cathartic”, the maximum recommended daily dose (mmol/kg-bw/day) is 0.00682.
With `O=C1NC(=O)[C@@]2(CCOc3ccc(F)cc32)N1`, the maximum recommended daily dose (mmol/kg-bw/day) (TherapeuticCategory: none) was 0.0177.
In the case of `COc1ccc2[nH]cc(CCNC(C)=O)c2c1`, under “TherapeuticCategory: antioxidant”, the maximum recommended daily dose (mmol/kg-bw/day) is 0.000359.
Take `CC(COc1ccccc1)N(CCCl)Cc1ccccc1` (stereo not given): the maximum recommended daily dose (mmol/kg-bw/day) under setting [6] is 0.00658.
As to `CNC[C@H](O)[C@@H](O)[C@H](O)[C@H](O)CO`, under setting [7], the maximum recommended daily dose (mmol/kg-bw/day) is 0.512.
In the case of `Cc1ccccc1C(OCCN(C)C)c1ccccc1` (stereo not given), the maximum recommended daily dose (mmol/kg-bw/day) (TherapeuticCategory: skeletal muscle relaxant, antihistiminic) was 0.0248.
Turning to `CC1(C)S[C@@H]2[C@H](NC(=O)[C@@H](NC(=O)N3CCNC3=O)c3ccccc3)C(=O)N2[C@H]1C(=O)O`, under setting [5], the maximum recommended daily dose (mmol/kg-bw/day) was 0.217.
On to `Nc1ccc(C(=O)NCC(=O)O)cc1`, for which the maximum recommended daily dose (mmol/kg-bw/day) (TherapeuticCategory: anti inflammatory, antifungal) was 0.0515.
Take `CC(=O)[C@@]1(O)CC[C@H]2[C@@H]3C=C(Cl)C4=CC(=O)[C@@H]5C[C@@H]5[C@]4(C)[C@H]3CC[C@@]21C`: the maximum recommended daily dose (mmol/kg-bw/day) (TherapeuticCategory: antiandrogen) was 0.0133.
Regarding `CCNCC(O)c1cccc(O)c1` (stereo not given), under “TherapeuticCategory: antihypotensive”, the maximum recommended daily dose (mmol/kg-bw/day) was 0.0046.
In the case of `CCCCc1nc(Cl)c(CO)n1Cc1ccc(-c2ccccc2-c2nn[nH]n2)cc1`, under setting [6], the maximum recommended daily dose (mmol/kg-bw/day) was 0.00395.
For the compound `COc1cc(C(=O)NS(=O)(=O)c2ccccc2C)ccc1Cc1cn(C)c2ccc(NC(=O)OC3CCCC3)cc12`, under setting [2], the maximum recommended daily dose (mmol/kg-bw/day) was 0.00116.
Turning to `O=C(NCC1CCCCN1)c1cc(OCC(F)(F)F)ccc1OCC(F)(F)F` (stereo not given), the maximum recommended daily dose (mmol/kg-bw/day) under setting [1] is 0.0121.
On to `CCCCC(=O)O[C@]1(C(=O)CO)[C@@H](C)C[C@H]2[C@@H]3CCC4=CC(=O)C=C[C@]4(C)[C@@]3(F)[C@@H](O)C[C@@]21C`, for which the maximum recommended daily dose (mmol/kg-bw/day) (TherapeuticCategory: glucocorticoid) was 0.000315.
For the compound `CN1CCN(C2=Nc3cc(Cl)ccc3Nc3ccccc32)CC1`, the maximum recommended daily dose (mmol/kg-bw/day) under setting [4] is 0.0459.
In the case of `NC[C@@H]1O[C@H](O[C@H]2[C@@H](O)[C@H](O[C@@H]3[C@@H](O)[C@H](N)C[C@H](N)[C@H]3O[C@H]3O[C@H](CN)[C@@H](O)[C@H](O)[C@H]3N)O[C@@H]2CO)[C@H](N)[C@@H](O)[C@@H]1O`, under setting [5], the maximum recommended daily dose (mmol/kg-bw/day) was 0.163.
As to `Nc1ccc(N=Nc2ccccc2)c(N)n1`, the maximum recommended daily dose (mmol/kg-bw/day) (TherapeuticCategory: analgesic) is 0.0313.
Regarding `C[C@H]1O[C@@H](O[C@H]2[C@@H](O)C[C@H](O[C@H]3[C@@H](O)C[C@H](O[C@H]4CC[C@@]5(C)[C@H](CC[C@@H]6[C@@H]5CC[C@]5(C)[C@@H](C7=CC(=O)OC7)CC[C@]65O)C4)O[C@@H]3C)O[C@@H]2C)C[C@H](O)[C@@H]1O`, under setting [8], the maximum recommended daily dose (mmol/kg-bw/day) was 2.61e-08.
As for `OCCN1CCN(CCCN2c3ccccc3Sc3ccc(Cl)cc32)CC1`, under “TherapeuticCategory: antipsychotic, dopamine receptor antagonist”, the maximum recommended daily dose (mmol/kg-bw/day) was 0.00099.
With `CCCCCCCCCCC(=O)O[C@H]1CC[C@H]2[C@@H]3CCc4cc(O)ccc4[C@H]3CC[C@]12C`, where the note is “TherapeuticCategory: estrogen”, the maximum recommended daily dose (mmol/kg-bw/day) is 0.00113.
Consider `CNCCC(Oc1ccc(C(F)(F)F)cc1)c1ccccc1` (stereo not given), for which, where the note is “TherapeuticCategory: antidepressant”, the maximum recommended daily dose (mmol/kg-bw/day) is 0.0043.
For the compound `CN(C)CCn1nnnc1SCC1=C(C(=O)O)N2C(=O)[C@@H](NC(=O)Cc3csc(N)n3)[C@H]2SC1`, under setting [5], the maximum recommended daily dose (mmol/kg-bw/day) was 0.19.
Consider `CCCCC(=O)OCC(=O)[C@@]1(O)[C@H](C)C[C@H]2[C@@H]3CCC4=CC(=O)C=C[C@]4(C)[C@@]3(F)[C@@H](O)C[C@@]21C`, for which the maximum recommended daily dose (mmol/kg-bw/day) (TherapeuticCategory: glucocorticoid, anti inflammatory) is 0.000315.
Consider `NS(=O)(=O)c1cc2c(cc1Cl)NC=NS2(=O)=O`, for which the maximum recommended daily dose (mmol/kg-bw/day) (TherapeuticCategory: diuretic) is 0.113.
Turning to `C[C@H]1[C@H](NC(=O)/C(=N\OC(C)(C)C(=O)O)c2csc(N)n2)C(=O)N1S(=O)(=O)O`, under setting [5], the maximum recommended daily dose (mmol/kg-bw/day) is 0.305.
For `C=CCN1C(=O)C(CC(C)C)NC1=S` (stereo not given), the maximum recommended daily dose (mmol/kg-bw/day) (TherapeuticCategory: anticonvulsant) is 0.188.
With `O=P(O)(O)OC(CO)CO`, where the note is “TherapeuticCategory: none”, the maximum recommended daily dose (mmol/kg-bw/day) was 0.388.
Consider `CCC(C)C1(CC)C(=O)NC(=O)NC1=O` (stereo not given), for which the maximum recommended daily dose (mmol/kg-bw/day) under setting [9] was 0.00942.
As for `CN(C/C=C/C#CC(C)(C)C)Cc1cccc2ccccc12`, the maximum recommended daily dose (mmol/kg-bw/day) (TherapeuticCategory: topical antifungal) is 0.0926.
Consider `N[C@@H](C(=O)N[C@@H]1C(=O)N2C(C(=O)O)=C(CSc3cn[nH]n3)CS[C@H]12)c1ccc(O)cc1`, for which the maximum recommended daily dose (mmol/kg-bw/day) under setting [5] was 0.0361.
For `C[C@@H]1CN2CC(=O)Nc3ccc(Cl)cc3[C@]2(c2ccccc2)O1`, the maximum recommended daily dose (mmol/kg-bw/day) (TherapeuticCategory: anxiolytic) was 0.00304.
Regarding `C=CC[C@]1(O)CC[C@H]2[C@@H]3CCC4=CCCC[C@@H]4[C@H]3CC[C@@]21C`, the maximum recommended daily dose (mmol/kg-bw/day) (TherapeuticCategory: progestogen) is 0.000832.
In the case of `CCCC(CCC)C(=O)OC1C[C@H]2CC[C@@H](C1)[N+]2(C)C` (stereo not given in full), the maximum recommended daily dose (mmol/kg-bw/day) (TherapeuticCategory: anticholinergic) is 0.0069.
On to `CN[C@@H]1[C@H](O)[C@H](NC)[C@H]2O[C@@]3(O)C(=O)C[C@@H](C)O[C@H]3O[C@@H]2[C@H]1O`, for which, under setting [5], the maximum recommended daily dose (mmol/kg-bw/day) was 0.201.
Regarding `COc1cc([C@@H]2Oc3cc([C@H]4Oc5cc(O)cc(O)c5C(=O)[C@@H]4O)ccc3O[C@H]2CO)ccc1O`, where the note is “TherapeuticCategory: treatment of liver disfunction”, the maximum recommended daily dose (mmol/kg-bw/day) is 0.0145.
For `CC1(C)S[C@@H]2[C@H](NC(=O)[C@H](N)c3ccccc3)C(=O)N2[C@H]1C(=O)O`, under setting [5], the maximum recommended daily dose (mmol/kg-bw/day) was 0.167.
For the compound `COc1ccc2c3c1O[C@H]1[C@@H](O)C=C[C@H]4[C@@H](C2)N(C)CC[C@@]341`, the maximum recommended daily dose (mmol/kg-bw/day) (TherapeuticCategory: narcotic analgesic, antitussive) is 0.02.
As to `OCCN(CCO)c1nc(-c2ccccc2)c(-c2ccccc2)o1`, the maximum recommended daily dose (mmol/kg-bw/day) under setting [10] is 0.0617.
With `Cc1cc2c(C(C)C)c(O)c(O)c(C=O)c2c(O)c1-c1c(C)cc2c(C(C)C)c(O)c(O)c(C=O)c2c1O`, the maximum recommended daily dose (mmol/kg-bw/day) (TherapeuticCategory: none) is 0.000642.
`Cc1ccnc(NS(=O)(=O)c2ccc(N)cc2)n1`: under setting [5], the maximum recommended daily dose (mmol/kg-bw/day) was 0.252.
In the case of `NCCc1ccn[nH]1`, the maximum recommended daily dose (mmol/kg-bw/day) under setting [7] was 0.0045.
For the compound `CCCCC[C@H](O)/C=C/[C@H]1[C@H](O)CC(=O)[C@@H]1CCCCCCC(=O)O`, under “TherapeuticCategory: vasodilator”, the maximum recommended daily dose (mmol/kg-bw/day) is 2.82e-07.
For the compound `OC[C@@H](O)[C@H]1O[C@@H]2O[C@H](C(Cl)(Cl)Cl)O[C@@H]2[C@H]1O`, the maximum recommended daily dose (mmol/kg-bw/day) under setting [9] was 0.0269.
Take `CN[C@@H]1[C@@H](O)[C@@H](O[C@@H]2[C@@H](O)[C@H](OC3OC(CN)=CCC3N)[C@@H](N)C[C@H]2N)OC[C@]1(C)O` (stereo not given in full): the maximum recommended daily dose (mmol/kg-bw/day) under setting [5] is 0.0067.
On to `CCC[C@@H]1O[C@@H]2C[C@H]3[C@@H]4CCC5=CC(=O)C=C[C@]5(C)[C@H]4[C@@H](O)C[C@]3(C)[C@]2(C(=O)CO)O1`, for which the maximum recommended daily dose (mmol/kg-bw/day) under setting [10] is 1.01e-05.
`Cc1[nH]c(=O)c(C#N)cc1-c1ccncc1`: under setting [8], the maximum recommended daily dose (mmol/kg-bw/day) was 0.000237.
As to `C=CCN1CC[C@]23CCCC[C@H]2[C@H]1Cc1ccc(O)cc13`, the maximum recommended daily dose (mmol/kg-bw/day) (TherapeuticCategory: narcotic antagonist) was 0.000235.
For `CN1CCC(CN2c3ccccc3Sc3ccccc32)C1` (stereo not given), the maximum recommended daily dose (mmol/kg-bw/day) (TherapeuticCategory: antipruritic) is 0.00169.
